Our source for the MIC and Stability values is ChEMBL document CHEMBL4257508, “The semi-synthesis, biological evaluation and docking analysis of the oxime, hydrazine and hydrazide derivatives of platensimycin” (Medchemcomm, 2018).

Data set [1] concerns Staphylococcus aureus. The data set can be described thus: Antibacterial activity against methicillin-resistant Staphylococcus aureus after 16 hrs by agar dilution method. It counts as functional.
For the next data set, the system named is Escherichia coli. The data set can be described thus: Antibacterial activity against Escherichia coli after 16 hrs by agar dilution method. It counts as functional. For orientation: In agar dilution, organisms are placed on agar that contains the substance at set levels.
The subject of data set [2] is Staphylococcus aureus. The data set can be described thus: Antibacterial activity against Staphylococcus aureus ATCC 29213 after 16 hrs by agar dilution method. Conditions: ATCC 29213, 16 h. Format: functional.
Data set [3] deals with Staphylococcus aureus. The data set can be described thus: Antibacterial activity against methicillin-sensitive Staphylococcus aureus after 16 hrs by agar dilution method. It counts as functional.
A further data set deals with Klebsiella pneumoniae. Nature of the data set: Antibacterial activity against Klebsiella pneumoniae after 16 hrs by agar dilution method. Format: functional.
The nature of data set [4]: Stability of the compound in LB agar after 16 hrs by UPLC analysis. Format: physicochemical.

Each structure is given as a SMILES string. ≈ marks a conversion by molar mass, not a printed value.

In general, MIC refers to the lowest concentration that inhibits growth of the organism. A lower MIC goes with inhibition by little substance. In the case of `C[C@]12C[C@@]34CCC(=O)[C@@](C)(CCC(=O)Nc5c(O)ccc(C(=O)O)c5O)[C@@H]3[C@H](C[C@@H]1C4)O2`, the MIC is 2 µg/mL (≈ 4.51 µM) against Staphylococcus aureus [1]; above 64 µg/mL with Escherichia coli; 2 µg/mL (≈ 4.51 µM) against Staphylococcus aureus [2]; 2 µg/mL (≈ 4.51 µM) in the data set with Staphylococcus aureus [3]; above 64 µg/mL in the data set with Klebsiella pneumoniae.
Take `C[C@]12C[C@@]34C=CC(=O)[C@@](C)(CCC(=O)Nc5c(O)ccc(C(=O)O)c5O)[C@@H]3[C@H](C[C@@H]1C4)O2`: the MIC against Staphylococcus aureus [1] stood at 1 µg/mL (≈ 2.27 µM); against Staphylococcus aureus [2] it was 0.5 µg/mL (≈ 1.13 µM); in the data set with Staphylococcus aureus [3] it was 0.5 µg/mL (≈ 1.13 µM).
Regarding `CC(C)(C)OC(=O)N/N=C1\C=C[C@]23C[C@H]4C[C@H](O[C@@]4(C)C2)[C@H]3[C@]1(C)CCC(=O)Nc1c(O)ccc(C(=O)O)c1O`, the Stability entry in data set [4] was “Stable”. The MIC was above 64 µg/mL against Escherichia coli, 16 µg/mL (≈ 28.8 µM) against Staphylococcus aureus [3] and above 64 µg/mL against Klebsiella pneumoniae.
Consider `C[C@]12C[C@@]34C=C/C(=N\O)[C@@](C)(CCC(=O)Nc5c(O)ccc(C(=O)O)c5O)[C@@H]3[C@H](C[C@@H]1C4)O2`, for which the MIC was 32 µg/mL (≈ 70.1 µM) with Staphylococcus aureus [1]; above 64 µg/mL in the data set on Escherichia coli; 32 µg/mL (≈ 70.1 µM) in the data set with Staphylococcus aureus [2]; 16 µg/mL (≈ 35 µM) against Staphylococcus aureus [3]; above 64 µg/mL in the data set on Klebsiella pneumoniae.
On to `COc1ccc(O)c(C(=O)N/N=C2\C=C[C@]34C[C@H]5C[C@H](O[C@@]5(C)C3)[C@H]4[C@]2(C)CCC(=O)Nc2c(O)ccc(C(=O)O)c2O)c1`, for which the MIC is above 64 µg/mL in the data set on Escherichia coli, 16 µg/mL (≈ 26.4 µM) against Staphylococcus aureus [3] and above 64 µg/mL in the data set with Klebsiella pneumoniae.
For the compound `C[C@@]1(CCC(=O)Nc2c(O)ccc(C(=O)O)c2O)[C@H](O)C=C[C@]23C[C@H]4C[C@H](O[C@@]4(C)C2)[C@H]31`, the MIC against Escherichia coli, against Staphylococcus aureus [2], in the data set with Staphylococcus aureus [3] and in the data set with Klebsiella pneumoniae was above 64 µg/mL each time.
As to `CCO/N=C1\C=C[C@]23C[C@H]4C[C@H](O[C@@]4(C)C2)[C@H]3[C@]1(C)CCC(=O)Nc1c(O)ccc(C(=O)O)c1O`, the minimal inhibitory concentration (MIC) against Escherichia coli, in the data set with Staphylococcus aureus [2], against Staphylococcus aureus [3] and in the data set with Klebsiella pneumoniae was above 64 µg/mL in each case.
In the case of `C[C@]12C[C@@]34C=C/C(=N\NC(=O)c5ccccc5)[C@@](C)(CCC(=O)Nc5c(O)ccc(C(=O)O)c5O)[C@@H]3[C@H](C[C@@H]1C4)O2`, the Stability entry in data set [4] is listed as “Stable”. In addition, the MIC in the data set on Escherichia coli is above 64 µg/mL; in the data set on Staphylococcus aureus [2] it was 32 µg/mL (≈ 57.2 µM); against Staphylococcus aureus [3], 32 µg/mL (≈ 57.2 µM); in the data set on Klebsiella pneumoniae, above 64 µg/mL.
With `C[C@]12C[C@]34C[C@H]1C[C@H](O2)[C@H]3[C@](C)(CCC(=O)Nc1c(O)ccc(C(=O)O)c1O)/C(=N/O)C[C@@H]4NO`, the MIC is 16 µg/mL (≈ 32.7 µM) against Staphylococcus aureus [1]; above 64 µg/mL with Escherichia coli; 16 µg/mL (≈ 32.7 µM) against Staphylococcus aureus [2]; 16 µg/mL (≈ 32.7 µM) against Staphylococcus aureus [3]; above 64 µg/mL against Klebsiella pneumoniae.
For `C[C@]12C[C@@]34C=C/C(=N\NC(N)=O)[C@@](C)(CCC(=O)Nc5c(O)ccc(C(=O)O)c5O)[C@@H]3[C@H](C[C@@H]1C4)O2`, the values for the MIC in the data set with Escherichia coli, in the data set with Staphylococcus aureus [3] and in the data set on Klebsiella pneumoniae were above 64 µg/mL, 8 µg/mL (≈ 16 µM) and above 64 µg/mL, respectively.
On to `C[C@]12C[C@@]34C=C/C(=N\NC(=O)Cc5ccccc5)[C@@](C)(CCC(=O)Nc5c(O)ccc(C(=O)O)c5O)[C@@H]3[C@H](C[C@@H]1C4)O2`, for which the Stability entry in data set [4] is recorded as “Stable”. The MIC against Escherichia coli is above 64 µg/mL; with Staphylococcus aureus [2], 8 µg/mL (≈ 13.9 µM); against Staphylococcus aureus [3] it was 8 µg/mL (≈ 13.9 µM); against Klebsiella pneumoniae, above 64 µg/mL.
Consider `CO/N=C1\C=C[C@]23C[C@H]4C[C@H](O[C@@]4(C)C2)[C@H]3[C@]1(C)CCC(=O)Nc1c(O)ccc(C(=O)O)c1O`, for which the Stability entry in data set [4] was “Stable”. Further, the MIC with Escherichia coli, in the data set with Staphylococcus aureus [2], in the data set on Staphylococcus aureus [3] and in the data set with Klebsiella pneumoniae was above 64 µg/mL throughout.
Consider `CC(=O)N/N=C1\C=C[C@]23C[C@H]4C[C@H](O[C@@]4(C)C2)[C@H]3[C@]1(C)CCC(=O)Nc1c(O)ccc(C(=O)O)c1O`, for which the MIC in the data set with Escherichia coli and with Klebsiella pneumoniae was above 64 µg/mL in each case.
Regarding `C[C@]12C[C@@]34C=C/C(=N\c5ccccc5)[C@@](C)(CCC(=O)Nc5c(O)ccc(C(=O)O)c5O)[C@@H]3[C@H](C[C@@H]1C4)O2`, the Stability entry in data set [4] is “Stable”. Besides, the MIC against Staphylococcus aureus [1] was 2 µg/mL (≈ 3.87 µM); in the data set on Escherichia coli, above 64 µg/mL; against Staphylococcus aureus [2], 2 µg/mL (≈ 3.87 µM); against Staphylococcus aureus [3], 1 µg/mL (≈ 1.94 µM); against Klebsiella pneumoniae, above 64 µg/mL.
On to `CC(C)(C)c1ccc(C(=O)N/N=C2\C=C[C@]34C[C@H]5C[C@H](O[C@@]5(C)C3)[C@H]4[C@]2(C)CCC(=O)Nc2c(O)ccc(C(=O)O)c2O)cc1`, for which the MIC against Escherichia coli was above 64 µg/mL; against Staphylococcus aureus [2], 32 µg/mL (≈ 52 µM); with Staphylococcus aureus [3], 16 µg/mL (≈ 26 µM); in the data set on Klebsiella pneumoniae, above 64 µg/mL.
`C[C@]1(CCC(=O)Nc2c(O)ccc(C(=O)O)c2O)[C@@H]2[C@@H]3C[C@@H]4C[C@@]2(CC[C@@H]1O)C[C@]4(C)O3`: the MIC with Escherichia coli, in the data set on Staphylococcus aureus [2], in the data set on Staphylococcus aureus [3] and with Klebsiella pneumoniae was above 64 µg/mL throughout.
Consider `C[C@]12C[C@@]34C=C/C(=N\NC(N)=S)[C@@](C)(CCC(=O)Nc5c(O)ccc(C(=O)O)c5O)[C@@H]3[C@H](C[C@@H]1C4)O2`, for which the results for the MIC against Escherichia coli, with Staphylococcus aureus [3] and with Klebsiella pneumoniae were above 64 µg/mL, 16 µg/mL (≈ 31.1 µM) and above 64 µg/mL, respectively.
In the case of `C[C@@]1(CCC(=O)Nc2c(O)ccc(C(=O)O)c2O)[C@H](O)CC[C@]23C[C@H]4C[C@H](O[C@@]4(C)C2)[C@H]31`, the MIC against Escherichia coli, against Staphylococcus aureus [2], in the data set with Staphylococcus aureus [3] and in the data set with Klebsiella pneumoniae was above 64 µg/mL each time.
For `C[C@]12C[C@@]34C=C/C(=N\NC(=O)c5ccc(O)cc5)[C@@](C)(CCC(=O)Nc5c(O)ccc(C(=O)O)c5O)[C@@H]3[C@H](C[C@@H]1C4)O2`, the MIC against Escherichia coli and in the data set on Klebsiella pneumoniae was above 64 µg/mL each time.
As for `C[C@]1(CCC(=O)Nc2c(O)ccc(C(=O)O)c2O)[C@@H]2[C@@H]3C[C@@H]4C[C@@]2(C=C[C@@H]1O)C[C@]4(C)O3`, the MIC against Escherichia coli, against Staphylococcus aureus [2], in the data set on Staphylococcus aureus [3] and against Klebsiella pneumoniae was above 64 µg/mL in each case.
As to `CC(=O)NC[C@H]1CN(c2ccc(N3CCOCC3)c(F)c2)C(=O)O1` [LINEZOLID], the MIC in the data set on Staphylococcus aureus [1], against Staphylococcus aureus [2] and with Staphylococcus aureus [3] was 1 µg/mL (≈ 2.96 µM) each time.
For `C=C1C[C@@]23C=CC(=O)[C@@](C)(CCC(=O)Nc4c(O)ccc(C(=O)O)c4O)[C@@H]2C[C@@H]1CC3` [PLATENCIN], the MIC against Staphylococcus aureus [1], in the data set on Staphylococcus aureus [2] and in the data set on Staphylococcus aureus [3] was 1 µg/mL (≈ 2.35 µM) throughout.
